± gives the expanded uncertainty stated by the source.
Experiment: xn = mol fraction of the nth substance listed
Settings: Liquid, Vibrating tube method

## CC(C)=O [acetone] + CCCCCCC
357.55 K, 24990 kPa, x1 = 0.4
  mass density: 726.84 ± 1.3 kg/m3
357.55 K, 24990 kPa, x1 = 0.8992
  mass density: 726.84 ± 1.3 kg/m3
357.55 K, 29870 kPa, x1 = 0.492
  mass density: 686.24 ± 1.3 kg/m3
357.55 K, 29870 kPa, x1 = 0.611
  mass density: 695.58 ± 1.3 kg/m3
357.55 K, 29970 kPa, x1 = 0.4
  mass density: 732.49 ± 1.3 kg/m3
357.55 K, 29970 kPa, x1 = 0.8992
  mass density: 732.49 ± 1.3 kg/m3
357.55 K, 34840 kPa, x1 = 0.492
  mass density: 691.34 ± 1.3 kg/m3
357.55 K, 34860 kPa, x1 = 0.611
  mass density: 700.78 ± 1.3 kg/m3
357.55 K, 34960 kPa, x1 = 0.4
  mass density: 737.79 ± 1.3 kg/m3
357.55 K, 34960 kPa, x1 = 0.8992
  mass density: 737.79 ± 1.3 kg/m3
357.55 K, 39860 kPa, x1 = 0.492
  mass density: 696.15 ± 1.3 kg/m3
357.55 K, 39860 kPa, x1 = 0.611
  mass density: 705.69 ± 1.3 kg/m3
357.55 K, 39960 kPa, x1 = 0.4
  mass density: 742.81 ± 1.3 kg/m3
357.55 K, 39960 kPa, x1 = 0.8992
  mass density: 742.81 ± 1.3 kg/m3
357.55 K, 44840 kPa, x1 = 0.492
  mass density: 700.71 ± 1.4 kg/m3
357.55 K, 44850 kPa, x1 = 0.611
  mass density: 710.3 ± 1.3 kg/m3
357.55 K, 44950 kPa, x1 = 0.4
  mass density: 747.57 ± 1.3 kg/m3
357.55 K, 44950 kPa, x1 = 0.8992
  mass density: 747.57 ± 1.3 kg/m3
357.55 K, 49840 kPa, x1 = 0.611
  mass density: 714.7 ± 1.4 kg/m3
357.55 K, 49940 kPa, x1 = 0.4
  mass density: 752.09 ± 1.4 kg/m3
357.55 K, 49940 kPa, x1 = 0.8992
  mass density: 752.09 ± 1.3 kg/m3
357.55 K, 54850 kPa, x1 = 0.492
  mass density: 709.15 ± 1.4 kg/m3
357.55 K, 54940 kPa, x1 = 0.4
  mass density: 756.43 ± 1.4 kg/m3
357.55 K, 54940 kPa, x1 = 0.611
  mass density: 718.97 ± 1.4 kg/m3
357.55 K, 54940 kPa, x1 = 0.8992
  mass density: 756.43 ± 1.3 kg/m3
357.55 K, 59860 kPa, x1 = 0.492
  mass density: 713.06 ± 1.4 kg/m3
357.55 K, 59930 kPa, x1 = 0.4
  mass density: 760.56 ± 1.4 kg/m3
357.55 K, 59930 kPa, x1 = 0.611
  mass density: 722.96 ± 1.4 kg/m3
357.55 K, 59930 kPa, x1 = 0.8992
  mass density: 760.56 ± 1.4 kg/m3
357.55 K, 64830 kPa, x1 = 0.492
  mass density: 716.77 ± 1.4 kg/m3
357.55 K, 64890 kPa, x1 = 0.4
  mass density: 764.53 ± 1.4 kg/m3
357.55 K, 64890 kPa, x1 = 0.8992
  mass density: 764.53 ± 1.4 kg/m3
357.55 K, 69890 kPa, x1 = 0.4
  mass density: 768.36 ± 1.4 kg/m3
357.55 K, 69890 kPa, x1 = 0.8992
  mass density: 768.36 ± 1.4 kg/m3
357.55 K, 69910 kPa, x1 = 0.611
  mass density: 730.41 ± 1.4 kg/m3
357.55 K, 69930 kPa, x1 = 0.492
  mass density: 720.43 ± 1.5 kg/m3
357.55 K, 74860 kPa, x1 = 0.4
  mass density: 772.01 ± 1.4 kg/m3
357.55 K, 74860 kPa, x1 = 0.8992
  mass density: 772.01 ± 1.4 kg/m3
357.55 K, 74890 kPa, x1 = 0.611
  mass density: 733.9 ± 1.5 kg/m3
357.55 K, 74910 kPa, x1 = 0.492
  mass density: 723.89 ± 1.5 kg/m3
357.55 K, 79780 kPa, x1 = 0.7024
  mass density: 747.09 ± 1.5 kg/m3
357.55 K, 79880 kPa, x1 = 0.611
  mass density: 737.26 ± 1.5 kg/m3
357.55 K, 84830 kPa, x1 = 0.4
  mass density: 778.99 ± 1.5 kg/m3
357.55 K, 84830 kPa, x1 = 0.8992
  mass density: 778.99 ± 1.4 kg/m3
357.55 K, 89740 kPa, x1 = 0.7024
  mass density: 753.59 ± 1.5 kg/m3
357.55 K, 89810 kPa, x1 = 0.4
  mass density: 782.3 ± 1.5 kg/m3
357.55 K, 89810 kPa, x1 = 0.8992
  mass density: 782.3 ± 1.4 kg/m3
357.55 K, 89830 kPa, x1 = 0.611
  mass density: 743.64 ± 1.5 kg/m3
357.55 K, 94820 kPa, x1 = 0.611
  mass density: 746.67 ± 1.5 kg/m3
357.55 K, 94860 kPa, x1 = 0.492
  mass density: 736.47 ± 1.6 kg/m3
357.55 K, 99800 kPa, x1 = 0.611
  mass density: 749.61 ± 1.6 kg/m3
357.55 K, 99820 kPa, x1 = 0.7024
  mass density: 759.74 ± 1.5 kg/m3
357.55 K, 104700 kPa, x1 = 0.4
  mass density: 791.65 ± 1.5 kg/m3
357.55 K, 104700 kPa, x1 = 0.8992
  mass density: 791.65 ± 1.5 kg/m3
357.55 K, 104820 kPa, x1 = 0.7024
  mass density: 762.65 ± 1.6 kg/m3
357.55 K, 109810 kPa, x1 = 0.7024
  mass density: 765.49 ± 1.6 kg/m3
357.55 K, 114810 kPa, x1 = 0.7024
  mass density: 768.22 ± 1.6 kg/m3
357.55 K, 119810 kPa, x1 = 0.7024
  mass density: 770.9 ± 1.6 kg/m3
357.55 K, 124810 kPa, x1 = 0.7024
  mass density: 773.52 ± 1.6 kg/m3
357.55 K, 129800 kPa, x1 = 0.7024
  mass density: 776.06 ± 1.7 kg/m3
357.56 K, 1060 kPa, x1 = 0.801
  mass density: 677.14 ± 1.2 kg/m3
357.56 K, 4870 kPa, x1 = 0.801
  mass density: 683.82 ± 1.2 kg/m3
357.56 K, 9840 kPa, x1 = 0.801
  mass density: 691.71 ± 1.2 kg/m3
357.56 K, 14860 kPa, x1 = 0.801
  mass density: 698.89 ± 1.2 kg/m3
357.56 K, 34850 kPa, x1 = 0.801
  mass density: 722.54 ± 1.3 kg/m3
357.56 K, 49850 kPa, x1 = 0.492
  mass density: 705.01 ± 1.4 kg/m3
357.56 K, 59820 kPa, x1 = 0.801
  mass density: 745.17 ± 1.4 kg/m3
357.56 K, 64910 kPa, x1 = 0.611
  mass density: 726.75 ± 1.4 kg/m3
357.56 K, 64920 kPa, x1 = 0.801
  mass density: 749.17 ± 1.4 kg/m3
357.56 K, 69910 kPa, x1 = 0.801
  mass density: 752.93 ± 1.4 kg/m3
357.56 K, 74880 kPa, x1 = 0.801
  mass density: 756.52 ± 1.4 kg/m3
357.56 K, 79850 kPa, x1 = 0.4
  mass density: 775.55 ± 1.4 kg/m3
357.56 K, 79850 kPa, x1 = 0.8992
  mass density: 775.55 ± 1.4 kg/m3
357.56 K, 79900 kPa, x1 = 0.492
  mass density: 727.2 ± 1.5 kg/m3
357.56 K, 84860 kPa, x1 = 0.611
  mass density: 740.5 ± 1.5 kg/m3
357.56 K, 84870 kPa, x1 = 0.801
  mass density: 763.37 ± 1.5 kg/m3
357.56 K, 84890 kPa, x1 = 0.492
  mass density: 730.4 ± 1.5 kg/m3
357.56 K, 89840 kPa, x1 = 0.801
  mass density: 766.6 ± 1.5 kg/m3
357.56 K, 89880 kPa, x1 = 0.492
  mass density: 733.49 ± 1.6 kg/m3
357.56 K, 94780 kPa, x1 = 0.4
  mass density: 785.51 ± 1.5 kg/m3
357.56 K, 94780 kPa, x1 = 0.8992
  mass density: 785.51 ± 1.5 kg/m3
357.56 K, 94830 kPa, x1 = 0.801
  mass density: 769.76 ± 1.5 kg/m3
357.56 K, 99750 kPa, x1 = 0.4
  mass density: 788.61 ± 1.5 kg/m3
357.56 K, 99750 kPa, x1 = 0.8992
  mass density: 788.61 ± 1.5 kg/m3
357.56 K, 99810 kPa, x1 = 0.801
  mass density: 772.8 ± 1.5 kg/m3
357.56 K, 99830 kPa, x1 = 0.492
  mass density: 739.34 ± 1.6 kg/m3
357.56 K, 104780 kPa, x1 = 0.611
  mass density: 752.46 ± 1.6 kg/m3
357.56 K, 104780 kPa, x1 = 0.801
  mass density: 775.76 ± 1.5 kg/m3
357.56 K, 104810 kPa, x1 = 0.492
  mass density: 742.14 ± 1.6 kg/m3
357.56 K, 109680 kPa, x1 = 0.4
  mass density: 794.58 ± 1.5 kg/m3
357.56 K, 109680 kPa, x1 = 0.8992
  mass density: 794.58 ± 1.5 kg/m3

— the NIST ThermoML archive (doi:10.1016/j.fluid.2010.10.028)
